What was measured:
Assay in all cases: foci formation assay
Type in all cases: cell-based, human
Conditions in all cases: 1 μM LGK974
[1] = system: Capan-2
Method: (§1) To assay foci formation, 6,000˜12,000 cells of indicated cell lines were seeded in 6 well tissue culture plate in 2 ml growth media. After overnight culture for cell attachment, media was replaced with fresh growth media containing 1 μM LGK974 in the absence and presence of recombinant Wnt3a. For DOX-inducible β-catenin shRNA experiment, cells were treated 5 ng/ml doxycycline. When cell colonies reached desirable size, cells were fixed with 4% formalin in PBS and stained with crystal violet solution. After a few washes, plates were dried and imaged.
(§2) Identification of pancreatic cancer lines containing inactivation mutation of RNF43. Discovery of LGK974, a potent and selective inhibitor of Porcupine, offered us a unique chemical tool to systemically examine Wnt dependency in a large panel of cancer cell lines. We tested LGK974 in a large panel of pancreatic cancer cell lines using foci formation assay. Foci formation assay was utilized because it is more sensitive than routine growth assays such as CellTiter-Glo, and it is less affected by the different growth rates of various cell lines.

[2] = system: HPAFII
Method: as §1, §2

[3] = system: Panc05.04
Method: as §1, §2

[4] = system: QGP-1
Method: as §1, §2

[5] = system: KLM1
Method: as §1, §2

[6] = system: T3M4
Method: as §1, §2

[7] = system: PK45H
Method: as §1, §2

[8] = system: Panc10.05
Method: as §1, §2

[9] = system: Panc03.27
Method: as §1, §2

[10] = system: KP2
Method: as §1, §2

[11] = system: CFPAC-1
Method: as §1, §2

[12] = system: KCl-MOH1
Method: as §1, §2

[13] = system: Panc08.13
Method: as §1, §2

[14] = system: PK1
Method: as §1, §2

[15] = system: KP1-N
Method: as §1, §2

[16] = system: KP-1NL
Method: as §1, §2

[17] = system: HuPT4
Method: as §1, §2

[18] = system: L3.3
Method: as §1, §2

[19] = system: SU86.86
Method: as §1, §2

[20] = system: PL45
Method: as §1, §2

[21] = system: PaTu-8988T
Method: as §1, §2

[22] = system: PANC-1
Method: as §1, §2

[23] = system: KP3
Method: as §1, §2

[24] = system: PaTu-8902
Method: as §1, §2

[25] = system: PSN-1
Method: as §1, §2

[26] = system: DanG
Method: as §1, §2

[27] = system: Panc04.03
Method: as §1, §2

[28] = system: BXPC3
Method: as §1, §2

[29] = system: KP4
Method: as §1, §2

SMILES: Cc1cc(-c2ncc(CC(=O)Nc3ccc(-c4cnccn4)cn3)cc2C)ccn1 [LGK974, 2-[5-methyl-6-(2-methylpyridin-4-yl)pyridin-3-yl]-N-[5-(pyrazin-2-yl)pyridin-2-yl]acetamide]
- Growth inhibition in foci formation assay [1]: strong growth inhibitory activity and strongly inhibited and Yes
- Growth inhibition in foci formation assay [2]: strong growth inhibitory activity and strongly inhibited and Yes
- Growth inhibition in foci formation assay [3]: No
- Growth inhibition in foci formation assay [4]: No
- Growth inhibition in foci formation assay [5]: No
- Growth inhibition in foci formation assay [6]: No
- Growth inhibition in foci formation assay [7]: No
- Growth inhibition in foci formation assay [8]: not sensitive and No
- Growth inhibition in foci formation assay [9]: No
- Growth inhibition in foci formation assay [10]: No
- Growth inhibition in foci formation assay [11]: No
- Growth inhibition in foci formation assay [12]: No
- Growth inhibition in foci formation assay [13]: No
- Growth inhibition in foci formation assay [14]: without significant effect and No
- Growth inhibition in foci formation assay [15]: No
- Growth inhibition in foci formation assay [16]: No
- Growth inhibition in foci formation assay [17]: No
- Growth inhibition in foci formation assay [18]: No
- Growth inhibition in foci formation assay [19]: No
- Growth inhibition in foci formation assay [20]: not sensitive and No
- Growth inhibition in foci formation assay [21]: not sensitive and No
- Growth inhibition in foci formation assay [22]: No
- Growth inhibition in foci formation assay [23]: No
- Growth inhibition in foci formation assay [24]: No
- Growth inhibition in foci formation assay [25]: No
- Growth inhibition in foci formation assay [26]: No
- Growth inhibition in foci formation assay [27]: No
- Growth inhibition in foci formation assay [28]: No
- Growth inhibition in foci formation assay [29]: No

From patent publication US20170306409A1, “CANCER PATIENT SELECTION FOR ADMINISTRATION OF WNT SIGNALING INHIBITORS USING RNF43 MUTATION STATUS” (NOVARTIS AG, priority 2012, published 2017)
